Data as given in patent publication US10905586B2, “Methods and devices for drug delivery to ocular tissue using microneedle” (Emory University, priority 2006, dated 2021).

Assay: Delivery and clearance of fluorescent molecule in suprachoroidal space of live rabbits
Format: in vivo
Details: live rabbit
Procedure: The delivery of a fluorescent molecule (sodium fluorescein) to the suprachoroidal space was evaluated using rabbits according to approved live animal experimental protocols. A one dimensional scan of the eye (through line of sight) was taken within the first five minutes after injection to determine the dispersion of the fluorescent molecule in the eye (FIG. 14). The y-axis indicates the fluorescent intensity (i.e., the concentration) and the x-axis represents the position in the eye from front (160) to back (0). Thus, the results illustrate that within the first 5 minutes after injection, the fluorescein had already flowed through the suprachoroidal space to the back of the eye, with some remaining at the initial insertion site.
Similar scans were taken to evaluate the rate of clearance of fluorescein from the suprachoroidal space over time (FIG. 15). The fluorescent intensity was measured in two regions of the eye (the suprachoroidal space and mid-vitreous region) over time.

Time to substantial clearance from the suprachoroidal space (suprachoroidal injection): ≤ 24 h
Time after injection by which it had flowed through the suprachoroidal space to the back of the eye (suprachoroidal injection, line of sight scan): ≤ 5 min
SMILES: O=C1OC2(c3ccc(O)cc3Oc3cc(O)ccc32)c2ccccc21 [sodium fluorescein]
Distribution suprachoroidal space vs mid-vitreous region (fluorescent intensity over time): remains in the suprachoroidal space without passing into the mid-vitreous region
